In patent publication US20040063662A1, “Selenophene anti-tumor agents” (priority 1996, published 2004):

Assays:
[1] = tested on: NCI-H23; assay: NCI human tumor cell panel: NCI-H23 (Non-Small Cell Lung Cancer); format: cell-based
[2] = tested on: HOP-92; assay: NCI human tumor cell panel: HOP-92 (Non-Small Cell Lung Cancer)
[3] = tested on: MDA-N; assay: NCI human tumor cell panel: MDA-N (Breast Cancer); format: cell-based
[4] = tested on: SK-MEL-28; assay: NCI human tumor cell panel: SK-MEL-28 (Melanoma); format: cell-based
[5] = tested on: MALME-3M; assay: NCI human tumor cell panel: MALME-3M (Melanoma); format: cell-based; conditions: Malme-3M
[6] = tested on: U251; assay: NCI human tumor cell panel: U251 (CNS Cancer); format: cell-based
[7] = tested on: HS 578T; assay: NCI human tumor cell panel: HS 578T (Breast Cancer); format: cell-based
[8] = tested on: TK-10; assay: NCI human tumor cell panel: TK-10 (Renal Cancer); format: cell-based
[9] = tested on: OVCAR-3; assay: NCI human tumor cell panel: OVCAR-3 (Ovarian Cancer); format: cell-based
[10] = tested on: SR; assay: NCI human tumor cell panel: SR (Leukemia); format: cell-based
[11] = tested on: MOLT-4; assay: NCI human tumor cell panel: MOLT-4 (Leukemia); format: cell-based
[12] = tested on: OVCAR-4; assay: NCI human tumor cell panel: OVCAR-4 (Ovarian Cancer); format: cell-based; conditions: OVCAR-4, read-out: Log10 GI50 (converted)
[13] = tested on: PC-3; assay: NCI human tumor cell panel: PC-3 (Prostate Cancer); format: cell-based
[14] = tested on: MCF7/ADR-RES; assay: NCI human tumor cell panel: MCF7/ADR-RES (Breast Cancer); format: cell-based
[15] = tested on: HOP-62; assay: NCI human tumor cell panel: HOP-62 (Non-Small Cell Lung Cancer); format: cell-based
[16] = tested on: UACC-62; assay: NCI human tumor cell panel: UACC-62 (Melanoma); format: cell-based
[17] = tested on: A549/ATCC; assay: NCI human tumor cell panel: A549/ATCC (Non-Small Cell Lung Cancer); format: cell-based
[18] = tested on: SF-295; assay: NCI human tumor cell panel: SF-295 (CNS Cancer); format: cell-based
[19] = tested on: NCI-H322M; assay: cells; format: cell-based; conditions: Homo sapiens
[20] = tested on: MDA-MB-435; assay: NCI human tumor cell panel: MDA-MB-435 (Breast Cancer); format: cell-based; conditions: MDA-MB-435, read-out: Log10 GI50 (converted)
[21] = tested on: MCF7; assay: NCI human tumor cell panel: MCF7 (Breast Cancer); format: cell-based
[22] = tested on: ACHN; assay: NCI human tumor cell panel: ACHN (Renal Cancer); format: cell-based
[23] = tested on: CCRF-CEM; assay: NCI human tumor cell panel: CCRF-CEM (Leukemia); format: cell-based
[24] = tested on: HCT-116; assay: NCI human tumor cell panel: HCT-116 (Colon Cancer); format: cell-based
[25] = tested on: SK-MEL-5; assay: NCI human tumor cell panel: SK-MEL-5 (Melanoma); format: cell-based
[26] = tested on: A498; assay: NCI human tumor cell panel: A498 (Renal Cancer); format: cell-based
[27] = tested on: SNB-19; assay: NCI human tumor cell panel: SNB-19 (CNS Cancer); format: cell-based
[28] = tested on: SF-539; assay: NCI human tumor cell panel: SF-539 (CNS Cancer); format: cell-based
[29] = tested on: HT29; assay: NCI human tumor cell panel: HT29 (Colon Cancer); format: cell-based
[30] = tested on: UACC-257; assay: NCI human tumor cell panel: UACC-257 (Melanoma); format: cell-based
[31] = tested on: NCI-H460; assay: NCI human tumor cell panel: NCI-H460 (Non-Small Cell Lung Cancer); format: cell-based
[32] = tested on: M14; assay: NCI human tumor cell panel: M14 (Melanoma); format: cell-based
[33] = read-out: Log10 GI50 (converted)
[34] = read-out: Log10 TGI (converted)

Compound `OCc1ccc(-c2ccc(-c3ccc(CO)[se]3)s2)[se]1` [compound 676632] has a GI50 ([1]; NCI-H23, read-out: Log10 GI50 (converted)) of over 100 µM, an IC (TGI) ([1]; NCI-H23, read-out: Log10 TGI (converted)) of over 100 µM and a GI50 ([2]; HOP-92, read-out: Log10 GI50 (converted)) of over 100 µM. For the same compound, the CC50 ([2]; HOP-92, read-out: Log10 LC50 (converted)) was over 100 µM, the IC (TGI) ([2]; HOP-92, read-out: Log10 TGI) was over 100 µM and the GI50 [3, 33] was over 100 µM. The IC (TGI) [3, 34] was over 100 µM, the GI50 ([4]; SK-MEL-28, read-out: Log10 GI50 (converted)) was over 100 µM and the IC (TGI) ([4]; SK-MEL-28, read-out: Log10 TGI (converted)) was over 100 µM. The GI50 [5, 33] was over 100 µM, the IC (TGI) [5, 34] was over 100 µM and the GI50 ([6]; U-251, U251, read-out: Log10 GI50 (converted)) was 0.0355 µM. The IC (TGI) ([6]; U-251, U251, read-out: Log10 TGI (converted)) was 12 µM, the GI50 [7, 33] was over 100 µM and the IC (TGI) [7, 34] was over 100 µM. It also gave a GI50 ([8]; TK-10, read-out: Log10 GI50 (converted)) of 0.0282 µM, an IC (TGI) ([8]; TK-10, read-out: Log10 TGI (converted)) of 0.0813 µM and a GI50 ([9]; OVCAR-3, read-out: Log10 GI50 (converted)) of 0.0195 µM. It also gave an IC (TGI) ([9]; OVCAR-3, read-out: Log10 TGI (converted)) of 0.0676 µM, a GI50 [10, 33] of over 100 µM and an IC (TGI) [10, 34] of over 100 µM. For the same compound, the GI50 ([11]; MOLT-4, read-out: Log10 GI50 (converted)) was over 100 µM, the IC (TGI) ([11]; MOLT-4, read-out: Log10 TGI (converted)) was over 100 µM and the GI50 [12] was 0.135 µM. It also gave a GI50 ([13]; PC-3, read-out: Log10 GI50 (converted)) of over 100 µM, an IC (TGI) ([13]; PC-3, read-out: Log10 TGI (converted)) of over 100 µM and a GI50 [14, 33] of over 100 µM. It also gave an IC (TGI) [14, 34] of over 100 µM, a GI50 ([15]; HOP-62, read-out: Log10 GI50 (converted)) of 0.0759 µM and an IC (TGI) ([15]; HOP-62, read-out: Log10 TGI (converted)) of over 100 µM. The GI50 ([16]; UACC-62, read-out: Log10 GI50 (converted)) was 0.0224 µM, the IC (TGI) ([16]; UACC-62, read-out: Log10 TGI (converted)) was 0.0562 µM and the GI50 [17, 33] was 2.63 µM. The IC (TGI) [17, 34] was over 100 µM, the GI50 ([18]; SF-295, read-out: Log10 GI50 (converted)) was over 100 µM and the IC (TGI) ([18]; SF-295, read-out: Log10 TGI (converted)) was over 100 µM. For the same compound, the GI50 [19, 33] was over 100 µM, the IC (TGI) [19, 34] was over 100 µM and the GI50 [20] was over 100 µM. The GI50 ([21]; MCF7, read-out: Log10 GI50 (converted)) was 0.0123 µM, the IC (TGI) ([21]; MCF7, read-out: Log10 TGI (converted)) was over 100 µM and the GI50 [22, 33] was over 100 µM. It also gave an IC (TGI) [22, 34] of over 100 µM, a GI50 [23, 33] of 87.1 µM and an IC (TGI) [23, 34] of over 100 µM. For the same compound, the GI50 ([24]; HCT-116, read-out: Log10 GI50 (converted)) was over 100 µM, the IC (TGI) ([24]; HCT-116, read-out: Log10 TGI (converted)) was over 100 µM and the GI50 ([25]; SK-MEL-5, read-out: Log10 GI50 (converted)) was 63.1 µM. It also gave an IC (TGI) ([25]; SK-MEL-5, read-out: Log10 TGI (converted)) of over 100 µM, a GI50 ([26]; A498, read-out: Log10 GI50 (converted)) of 0.0186 µM and an IC (TGI) ([26]; A498, read-out: Log10 TGI (converted)) of 0.0427 µM. The GI50 ([27]; SNB-19, read-out: Log10 GI50 (converted)) was 42.7 µM, the IC (TGI) ([27]; SNB-19, read-out: Log10 TGI (converted)) was over 100 µM and the GI50 ([28]; SF-539, read-out: Log10 GI50 (converted)) was over 100 µM. It also gave an IC (TGI) ([28]; SF-539, read-out: Log10 TGI (converted)) of over 100 µM, a GI50 ([29]; HT-29, HT29, read-out: Log10 GI50 (converted)) of over 100 µM and an IC (TGI) ([29]; HT-29, HT29, read-out: Log10 TGI (converted)) of over 100 µM. It also gave a GI50 ([30]; UACC-257, read-out: Log10 GI50 (converted)) of 0.0214 µM, an IC (TGI) ([30]; UACC-257, read-out: Log10 TGI (converted)) of over 100 µM and a GI50 ([31]; NCI-H460, read-out: Log10 GI50 (converted)) of 0.0468 µM. For the same compound, the IC (TGI) ([31]; NCI-H460, read-out: Log10 TGI (converted)) was over 100 µM, the GI50 ([32]; M14, read-out: Log10 GI50 (converted)) was over 100 µM and the IC (TGI) ([32]; M14, read-out: Log10 TGI (converted)) was over 100 µM.
